In patent publication US20090111821A1, “AMINO 1,2,4-TRIAZOLE DERIVATIVES AS MODULATORS OF MGLUR5” (AstraZeneca AB, priority 2007, published 2009):

Assays:
human mGluR5d = biological target: T1, human mGluR5d (Homo sapiens, UniProt P41594); test: FLIPR assay, mobilization of intracellular calcium in cells expressing human mGluR5d; format: cell-based; conditions: antagonism of agonist response, read-out: FLIPR hmGluR5d
T1 construct: expressed in transfected cells; The cells are kept under hygromycin B and Zeocin selection; The separate IP3 assay names GHEK cells stably expressing human mGluR5d
T1 sequence (P41594 21-942 isoform P41594-3 limits assumed): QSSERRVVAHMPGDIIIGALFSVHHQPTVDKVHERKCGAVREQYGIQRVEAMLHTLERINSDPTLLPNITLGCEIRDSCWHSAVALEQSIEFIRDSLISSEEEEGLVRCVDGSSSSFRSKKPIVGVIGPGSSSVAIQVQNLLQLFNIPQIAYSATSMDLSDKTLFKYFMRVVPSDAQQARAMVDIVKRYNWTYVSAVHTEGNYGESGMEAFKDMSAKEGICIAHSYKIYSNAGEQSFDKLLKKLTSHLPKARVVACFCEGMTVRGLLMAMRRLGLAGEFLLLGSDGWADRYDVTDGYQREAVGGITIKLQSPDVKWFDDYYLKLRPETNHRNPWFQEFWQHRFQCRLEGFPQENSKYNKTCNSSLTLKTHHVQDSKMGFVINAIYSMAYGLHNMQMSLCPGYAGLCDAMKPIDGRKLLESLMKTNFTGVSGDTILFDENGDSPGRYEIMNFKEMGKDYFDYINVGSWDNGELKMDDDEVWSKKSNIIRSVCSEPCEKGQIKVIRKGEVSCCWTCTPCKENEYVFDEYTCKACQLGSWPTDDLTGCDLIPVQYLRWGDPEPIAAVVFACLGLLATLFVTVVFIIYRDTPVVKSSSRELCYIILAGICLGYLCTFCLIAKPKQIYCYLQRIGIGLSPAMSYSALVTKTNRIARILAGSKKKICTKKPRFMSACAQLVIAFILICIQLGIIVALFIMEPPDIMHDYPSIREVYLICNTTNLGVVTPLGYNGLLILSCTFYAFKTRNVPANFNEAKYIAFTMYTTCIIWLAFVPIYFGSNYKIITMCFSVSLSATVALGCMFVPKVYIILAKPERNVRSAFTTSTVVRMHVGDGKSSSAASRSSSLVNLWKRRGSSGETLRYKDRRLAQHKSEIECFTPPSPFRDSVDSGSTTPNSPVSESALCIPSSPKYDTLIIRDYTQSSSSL
Excerpt: Functional Assessment of mGluR5 Antagonism in Cell Lines Expressing mGluR5D
The properties of the compounds of the invention can be analyzed using standard assays for pharmacological activity. Examples of glutamate receptor assays are well known in the art as described in for example Aramori et al., Neuron 8:757 (1992), Tanabe et al. Neuron 8:169 (1992), Miller et al., J. Neuroscience 15: 6103 (1995), Balazs, et al., J. Neurochemistry 69:151 (1997). The methodology described in these publications is incorporated herein by reference. Conveniently, the compounds of the invention can be studied by means of an assay (FLIPR) that measures the mobilization of intracellular calcium, [Ca^2+]i in cells expressing mGluR5 or another assay (IP3) that measures inositol phosphate turnover.
Cells expressing human mGluR5d as described in WO97/05252 cultured in a mixture of high glucose DMEM with Glutamax (31966-021)(500 mL), 10% dialyzed fetal bovine serum (Hyclone #SH30079.03) (56 mL), 200 μg/mL Hygromycin B (Invitrogen 45-0430, 50 mg/mL) (2.2 mL), 200 μg/mL Zeocin (Invitrogen #R250-01; 100 mg/mL) (1.1 mL) are seeded at a density of 100,000 cells per well on collagen coated clear bottom 96-well plates with black sides and cells were allowed to adhere over night before experiments. All assays are done in a buffer containing 146 mM NaCl, 5 mM KCl, 1 mM MgCl2, 1 mM CaCl2, 20 mM HEPES, 1 mg/mL glucose and 1 mg/mL BSA Fraction IV (pH 7.4). Cell cultures in the 96-well plates are loaded for 60 minutes in the above mentioned buffer containing 6 μM of the acetoxymethyl ester form of the fluorescent calcium indicator fluo-3 (Molecular Probes, Eugene, Oreg.) in 0.025% pluronic acid (a proprietary, non-ionic surfactant polyol—CAS Number 9003-11-6). Following the loading period the fluo-3 buffer is removed and replaced with fresh assay buffer. FLIPR experiments are done using a laser setting of 0.700 W and a 0.4 second CCD camera shutter speed with excitation and emission wavelengths of 488 nm and 562 nm, respectively. Each experiment is initiated with 160 μl of buffer present in each well of the cell plate. A 40 μl addition from the antagonist plate was followed by a 50 μL addition from the agonist plate. A 30 minutes, in dark at 25° C., interval separates the antagonist and agonist additions. The fluorescence signal is sampled 50 times at 1-second intervals followed by 3 samples at 5-second intervals immediately after each of the two additions. Responses are measured as the difference between the peak heights of the response to agonist, less the background fluorescence within the sample period. IC50 determinations are made using a […] least squares fitting program.

[1] = Determination of brain to plasma ratio in rat; format: in vivo; conditions: brain and plasma, female Sprague Dawley rats, read-out: Brain/Plasma Ratio of compound in Rat
Procedure: Brain to plasma ratios are estimated in female Sprague Dawley rats. The compound is dissolved in water or another appropriate vehicle. For determination of brain to plasma ratio the compound is administrated as a subcutaneous, or an intravenous bolus injection, or an intravenous infusion, or an oral administration. At a predetermined time point after the administration a blood sample is taken with cardiac puncture. The rat is terminated by cutting the heart open, and the brain is immediately retained. The blood samples are collected in heparinized tubes and centrifuged within 30 minutes, in order to separate the plasma from the blood cells. The plasma is transferred to 96-well plates and stored at −20° C. until analysis. The brains are divided in half, and each half is placed in a pre-tarred tube and stored at −20° C. until analysis. Prior to the analysis, the brain samples are thawed and 3 mL/g brain tissue of distilled water is added to the tubes. The brain samples are sonicated in an ice bath until the samples are homogenized. Both brain and plasma samples are precipitated with acetonitrile. After centrifugation, the supernatant is diluted with 0.2% formic acid. Analysis is performed on a short reversed-phase HPLC column with rapid gradient elution and MSMS detection using a triple quadrupole instrument with electrospray ionisation and Selected Reaction Monitoring (SRM) acquisition. Liquid-liquid extraction may be used as an alternative sample clean-up. The samples are extracted, by shaking, to an organic solvent after addition of a suitable buffer. An aliquot of the organic layer is transferred to a new vial and evaporated to dryness under a stream of nitrogen. After reconstitution of the residuals the samples are ready for injection onto the HPLC column.

SMILES	IC50 (human mGluR5d) [µM]	Kp [1]
CC(c1cc(-c2cccc(Cl)c2)on1)N(C)c1nnc(-c2ccn(C)c(=O)c2)n1C (single isomer, unassigned; (-)) [(−) 5.1]	0.03	< 0.01
CC(c1cc(-c2cccc(Cl)c2)on1)N(c1nnc(-c2cn[nH]c(=O)c2)n1C)C1CC1 (single isomer, unassigned; (-)) [(−) 5.2]	0.111	< 0.01
Cn1c(-c2cn[nH]c(=O)c2)nnc1N(Cc1cc(-c2cccc(Cl)c2)on1)C1CC1 [Example 4.1, 5-{5-[{[5-(3-Chlorophenyl)isoxazol-3-yl]methyl}(cyclopropyl)amino]-4-methyl-4H-1,2,4-triazol-3-yl}pyridazin-3(2H)-one]	0.041	< 0.01
CCN(Cc1cc(-c2cccc(Cl)c2)on1)c1nnc(-c2cc[nH]c(=O)c2)n1C [Example 4.2, 4-{5-[{[5-(3-Chlorophenyl)-isoxazol-3-yl]methyl}(ethyl)amino]-4-methyl-4H-1,2,4-triazol-3-yl}pyridin-2(1H)-one]	0.031	0.02
CCN(Cc1cc(-c2cccc(Cl)c2)on1)c1nnc(-c2cn[nH]c(=O)c2)n1C [Example 4.3, 5-{5-[{[5-(3-Chlorophenyl)-isoxazol-3-yl]methyl}(ethyl)-amino]-4-methyl-4H-1,2,4-triazol-3-yl}pyridazin-3(2H)-one]	0.021	0.015
CCn1c(-c2cc(=O)[nH]cn2)nnc1N(C)Cc1cc(-c2cccc(Cl)c2)on1 [Example 4.4, 6-{5-[{[5-(3-chlorophenyl)-isoxazol-3-yl]methyl}(methyl)amino]-4-ethyl-4H-1,2,4-triazol-3-yl}pyrimidin-4(3H)-one]	0.013	< 0.01
CN(Cc1cc(-c2cccc(Cl)c2)on1)c1nnc(-c2cc(=O)[nH]cn2)n1C1CC1 [Example 4.5, 6-{5-[{[5-(3-chlorophenyl)isoxazol-3-yl]methyl}(methyl)amino]-4-cyclopropyl-4H-1,2,4-triazol-3-yl}pyrimidin-4(3H)-one]	0.077	< 0.01
CCN(Cc1cc(-c2cccc(C)c2)on1)c1nnc(-c2cn[nH]c(=O)c2)n1C [Example 4.6, 5-[5-(Ethyl{[5-(3-methylphenyl)isoxazol-3-yl]-methyl}amino)-4-methyl-4H-1,2,4-triazol-3-yl]pyridazin-3(2H)-one]	0.045	0.01
CCn1c(-c2cc(=O)[nH]cn2)nnc1N(C)Cc1cc(-c2cccc(C)c2)on1 [Example 4.7, 6-[4-Ethyl-5-(methyl{[5-(3-methylphenyl)isoxazol-3-yl]methyl}amino)-4H-1,2,4-triazol-3-yl]pyrimidin-4(3H)-one]	0.053	< 0.015
CCN(Cc1cc(-c2cccc(C)c2)on1)c1nnc(-c2ccn(C)c(=O)c2)n1C [Example 4.8, 4-[5-(Ethyl{[5-(3-methylphenyl)isoxazol-3-yl]methyl}amino)-4-methyl-4H-1,2,4-triazol-3-yl]-1-methylpyridin-2(1H)-one]	0.112	0.22
CCN(Cc1cc(-c2cccc(C)c2)on1)c1nnc(-c2cc[nH]c(=O)c2)n1C [Example 4.9, 4-[5-(Ethyl{[5-(3-methylphenyl)isoxazol-3-yl]methyl}amino)-4-methyl-4H-1,2,4-triazol-3-yl]pyridin-2(1H)-one]	0.053	0.035
CCN(Cc1cc(-c2cccc(Cl)c2)on1)c1nnc(-c2ccn(C)c(=O)c2)n1C [Example 4.10, 4-{5-[{[5-(3-Chlorophenyl)-isoxazol-3-yl]methyl}(ethyl)amino]-4-methyl-4H-1,2,4-triazol-3-yl}-1-methylpyridin-2(1H)-one]	0.065	< 0.01
Cc1cccc(-c2cc([C@H](C)N(C)c3nnc(-c4cn[nH]c(=O)c4)n3C)no2)c1 [Example 4.11, (−)-5-[4-Methyl-5-(methyl-{(1S)-1-[5-(3-methylphenyl)isoxazol-3-yl]ethyl}amino)-4H-1,2,4-triazol-3-yl]pyridazin-3(2H)-one]	0.043	< 0.01
Cc1cccc(-c2cc([C@H](C)N(C)c3nnc(-c4cc[nH]c(=O)c4)n3C)no2)c1 [Example 4.12, (−)-4-[4-Methyl-5-(methyl-{(1S)-1-[5-(3-methylphenyl)-isoxazol-3-yl]ethyl}amino)-4H-1,2,4-triazol-3-yl]pyridin-2(1H)-one]	0.071	< 0.01
Cc1cccc(-c2cc([C@H](C)N(C)c3nnc(-c4cnn(C)c(=O)c4)n3C)no2)c1 [Example 14, 2-Methyl-5-[4-methyl-5-(methyl{(1S)-1-[5-(3-methylphenyl)isoxazol-3-yl]ethyl}amino)-4H-1,2,4-triazol-3-yl]pyridazin-3(2H)-one]	0.012	0.07

Second part, the compound after the results:

IC50 (human mGluR5d) [µM]	Kp [1]	SMILES
0.01	0.03	CN(Cc1cc(-c2cccc(Cl)c2)on1)c1nnc(-c2ccnnc2)n1C [Example 8.1, N-{[5-(3-Chlorophenyl)isoxazol-3-yl]methyl}-N,4-dimethyl-5-pyridazin-4-yl-4H-1,2,4-triazol-3-amine]
0.02	0.16	CN(Cc1cc(-c2cccc(Cl)c2)on1)c1nnc(-c2cncnc2)n1C [Example 8.2, N-{[5-(3-Chlorophenyl)isoxazol-3-yl]methyl}-N,4-dimethyl-5-pyrimidin-5-yl-4H-1,2,4-triazol-3-amine]
0.117	< 0.01	Cc1cccc(-c2cc([C@H](C)N(C)c3nnc(-c4ccn(C)c(=O)c4)n3C)no2)c1 [Example 8.3, 1-Methyl-4-[4-methyl-5-(methyl-{(1S)-1-[5-(3-methylphenyl)-isoxazol-3-yl]ethyl}amino)-4H-1,2,4-triazol-3-yl]pyridin-2(1H)-one]
0.043	< 0.01	CCN(Cc1noc(-c2cccc(Cl)c2)n1)c1nnc(-c2cn[nH]c(=O)c2)n1C [Example 8.4, 5-{5-[{[5-(3-Chlorophenyl)-1,2,4-oxadiazol-3-yl]methyl}(ethyl)amino]-4-methyl-4H-1,2,4-triazol-3-yl}pyridazin-3(2H)-one]
0.052	< 0.01	CCN(Cc1noc(-c2cccc(C)c2)n1)c1nnc(-c2cn[nH]c(=O)c2)n1C [Example 8.5, 5-[5-(Ethyl{[5-(3-methylphenyl)-1,2,4-oxadiazol-3-yl]methyl}amino)-4-methyl-4H-1,2,4-triazol-3-yl]pyridazin-3(2H)-one]
0.075	< 0.01	CCN(Cc1noc(-c2cccc(C)c2)n1)c1nnc(-c2ccn(C)c(=O)c2)n1C [Example 8.6, 4-[5-(Ethyl{[5-(3-methylphenyl)-1,2,4-oxadiazol-3-yl]methyl}amino)-4-methyl-4H-1,2,4-triazol-3-yl]-1-methylpyridin-2(1H)-one]
